{"source": "paper PMC4492764", "about": "“Evaluation of biomarkers for in vitro prediction of drug-induced nephrotoxicity: comparison of HK-2, immortalized human proximal tubule epithelial, and primary cultures of human proximal tubular cells” (Pharmacology Research & Perspectives, 2015)", "format_in_all_cases": "cell-based, human", "key": {"NGAL mRNA [1]": {"system": "NGAL mRNA", "experiment": "NGAL mRNA qRT-PCR in HK-2 cells", "set-up": "key to Upregulation of NGAL HK-2 R: +: statistically significant increase; −: no significant increase", "settings": "mRNA levels; 72 h time point", "method": "(§1) HK-2 cells (ATCC CRL-2190; Manassas, VA) were maintained in DMEM/F12 (Life Technologies; Sydney, NSW, Australia) supplemented with 5 μg/mL insulin, 5 μg/mL transferrin, 5 ng/mL sodium selenite (ITS; Roche; […] (passage 2) and culture kits were purchased from Lonza. […] were maintained in Renal Epithelial Cell BulletKitTM (CC-3190, Lonza) at 37°C and 5% CO2 atmosphere. Cells were passaged to 96-well plates with a density of 4000 cells/well. After 24 h culture, compounds with different concentration series were added into each well and incubated for 4, 24, 48, and 72 h. HK-2 and […] were treated with compounds for 4, 24, 48, and 72 h, then the cells were lysed and the RNA reverse transcribed with the TaqMan® Gene Expression Cells-to-CTTM Kit (Life Technologies) according to the manufacturer's instructions. […] Hs00273334_m1), Lcn2 (NGAL; Hs01008571_m1), and Csf1 (M-CSF; Hs00174164_m1). All probes span an exon-exon junction. The real-time quantitative reverse transcription PCR (qRT-PCR) was performed in a 10 μl final reaction mixture using a ViiA 7TM system (Applied Biosystems®, Sydney, NSW, Australia) based on the following thermo cycling conditions: 10 min at 95°C for one cycle, 15 sec at 95°C, 60 sec at 60°C for 40 cycles. The ViiA 7TM software was used for data analysis with Hprt1 expression used for normalization. All assays were performed at least three times, with at least two technical replicates in each assay."}, "NGAL [2]": {"system": "NGAL", "experiment": "NGAL protein ELISA in HK-2 cells", "set-up": "key: +: statistically significant increase; −: no significant increase", "settings": "protein levels in culture medium; 72 h time point", "method": "(§2) HK-2 cells (ATCC CRL-2190; Manassas, VA) were maintained in DMEM/F12 (Life Technologies; Sydney, NSW, Australia) supplemented with 5 μg/mL insulin, 5 μg/mL transferrin, 5 ng/mL sodium selenite (ITS; Roche; […] (passage 2) and culture kits were purchased from Lonza. […] were maintained in Renal Epithelial Cell BulletKitTM (CC-3190, Lonza) at 37°C and 5% CO2 atmosphere. Cells were passaged to 96-well plates with a density of 4000 cells/well. After 24 h culture, compounds with different concentration series were added into each well and incubated for 4, 24, 48, and 72 h. KIM-1 (DY1750), NGAL (DY1757), and M-CSF (DY216) Duo-Set® ELISA kits were purchased from R&D systems (Minneapolis, MN). Sandwich-ELISA experiments were conducted following the manufacturer's instructions with slight modifications. A 96-well microplate (MaxiSorp®, Nunc, Thermo Scientific, NSW, Australia) was coated with 100 μL of capture antibodies (diluted 1:200 in PBS) and incubated overnight. The plate was then washed twice with washing buffer (0.05% Tween 20 in PBS, pH 7.4) and blocked by adding 300 μL of blocking buffer (1% bovine serum albumin (BSA) in PBS) for 1 h at room temperature. After washing two times with PBS, 100 μL of samples (cell culture media or cell lysates) or standards were then added to each well and incubated for 2 h at room temperature. The biotinylated detection antibodies were then diluted in blocking buffer, added to each well and incubated for 2 h. Horseradish peroxidase (HRP)-labeled streptavidin (100 μL) was then added to bind to detection antibodies. To each well, 100 μL of substrate solution (1:1 mixture of H2O2 and tetramethylbenzidine) was added and incubated for 20 min before reaction termination with 50 μL of stop solution (2N H2SO4). The optical density of each well was measured at 450 nm using a POLARstar Omega plate reader (BMG Labtech). All assays were performed at least three times, with at least two technical replicates in each assay."}, "[3]": {"experiment": "MTT cytotoxicity assay in HK-2 cells", "settings": "human, HK-2 cells; 72 h incubation; Mean ± Standard deviation, n = 3", "method": "(§3) For the MTT assay, the medium was then removed, the dried crystals were resuspended in 60 μL of Dimethyl sulfoxide (DMSO), and the absorbance was read at 570 nm. For the resazurin assay, the fluorescence intensity was read using a PolarStar Omega plate reader (BMG Labtech; Mornington VIC, Australia) at excitation/emission 560/590 nm. All assays were performed at least three times. […] La Jolla, CA). Both MTT and resazurin assays were performed three times, with two technical replicates in each assay."}, "KIM-1 [4]": {"system": "KIM-1", "experiment": "KIM-1 protein ELISA in hRPTECs", "set-up": "key to Upregulation of KIM-1 hRPTECs P: +: statistically significant increase; −: no significant increase", "method": "as §2"}, "[5]": {"experiment": "MTT cytotoxicity assay in hRPTECs", "settings": "human, hRPTECs (passage 2); 72 h incubation; Mean ± Standard deviation, n = 3", "method": "as §3"}, "[6]": {"experiment": "Resazurin cytotoxicity assay in hRPTECs", "settings": "human, hRPTECs (passage 2); 72 h incubation; Mean ± Standard deviation, n = 3", "method": "as §3"}, "NGAL [7]": {"system": "NGAL", "experiment": "NGAL protein ELISA in hRPTECs", "set-up": "key to Upregulation of NGAL hRPTECs P: +: statistically significant increase; −: no significant increase", "settings": "for NGAL protein in hRPTEC culture medium: 24 h", "method": "as §2"}, "KIM-1 mRNA [8]": {"system": "KIM-1 mRNA", "experiment": "KIM-1 mRNA qRT-PCR in HK-2 cells", "set-up": "key to Upregulation of KIM-1 HK-2 R: +: statistically significant increase; −: no significant increase", "method": "as §1"}, "NGAL mRNA [9]": {"system": "NGAL mRNA", "experiment": "NGAL mRNA qRT-PCR in hRPTECs", "set-up": "key to Upregulation of NGAL hRPTECs R: +: statistically significant increase; −: no significant increase", "method": "as §1"}, "KIM-1 mRNA [10]": {"system": "KIM-1 mRNA", "experiment": "KIM-1 mRNA qRT-PCR in hRPTECs", "set-up": "key to Upregulation of KIM-1 hRPTECs R: +: statistically significant increase; −: no significant increase", "method": "as §1"}, "[11]": {"experiment": "Resazurin cytotoxicity assay in HK-2 cells", "settings": "human, HK-2 cells; 72 h incubation; Mean ± Standard deviation, n = 3", "method": "as §3"}, "KIM-1 [12]": {"system": "KIM-1", "experiment": "KIM-1 protein ELISA in HK-2 cells", "set-up": "key: +: statistically significant increase; −: no significant increase", "settings": "protein levels in culture medium; 72 h time point", "method": "as §2"}, "M-CSF mRNA": {"system": "M-CSF mRNA", "experiment": "M-CSF mRNA qRT-PCR in hRPTECs", "settings": "72 h (Fig.4C)", "method": "Hs00273334_m1), Lcn2 (NGAL; Hs01008571_m1), and Csf1 (M-CSF; Hs00174164_m1). All probes span an exon-exon junction. The real-time quantitative reverse transcription PCR (qRT-PCR) was performed in a 10 μl final reaction mixture using a ViiA 7TM system (Applied Biosystems®, Sydney, NSW, Australia) based on the following thermo cycling conditions: 10 min at 95°C for one cycle, 15 sec at 95°C, 60 sec at 60°C for 40 cycles. The ViiA 7TM software was used for data analysis with Hprt1 expression used for normalization. All assays were performed at least three times, with at least two technical replicates in each assay."}, "[13]": {"settings": "protein levels in culture medium, 72 h time point"}}, "note": "“Also recorded” adds a separate entry of the source.", "data": [{"compound": "C[C@@H]1[C@H](O)[C@@H](C)/C=C/C=C/C=C/C=C/C=C/C=C/C=C/[C@H](O[C@@H]2O[C@H](C)[C@@H](O)[C@H](N)[C@@H]2O)C[C@@H]2O[C@](O)(C[C@@H](O)C[C@@H](O)[C@H](O)CC[C@@H](O)C[C@@H](O)CC(=O)O[C@H]1C)C[C@H](O)[C@H]2C(=O)O", "note": "[AmB, amphotericin B]", "values": [{"measurement": "Upregulation of NGAL HK-2 R", "setting": "NGAL mRNA [1]", "result": "−"}, {"measurement": "Upregulation of NGAL HK-2 P", "setting": "NGAL [2]", "result": "−"}, {"measurement": "CC50 at 72 h", "setting": "[3]", "result": "> 50", "unit": "µM"}, {"measurement": "KIM-1 protein upregulation in hRPTECs", "setting": "KIM-1 [4]; 4 h, culture medium (Fig. S5A)", "result": "significant upregulation"}, {"measurement": "Upregulation of KIM-1 hRPTECs P", "setting": "KIM-1 [4]; [13]", "result": "+"}, {"measurement": "CC50 at 72 h", "setting": "[5]", "result": "> 50", "unit": "µM"}, {"measurement": "CC50 at 72 h", "setting": "[6]", "result": "6 ± 1", "unit": "µM"}, {"measurement": "NGAL protein in hRPTEC culture medium", "setting": "NGAL [7]", "result": "increases"}, {"measurement": "Upregulation of NGAL hRPTECs P", "setting": "NGAL [7]; [13]", "result": "+"}, {"measurement": "Upregulation of KIM-1 HK-2 R", "setting": "KIM-1 mRNA [8]; mRNA levels, 72 h time point", "result": "−"}, {"measurement": "Upregulation of NGAL hRPTECs R", "setting": "NGAL mRNA [9]; mRNA levels, 72 h time point", "result": "−"}, {"measurement": "Upregulation of KIM-1 hRPTECs R", "setting": "KIM-1 mRNA [10]; mRNA levels, 72 h time point", "result": "−"}, {"measurement": "CC50 at 72 h", "setting": "[11]", "result": "20 ± 3", "unit": "µM"}, {"measurement": "Upregulation of KIM-1 HK-2 P", "setting": "KIM-1 [12]", "result": "−"}]}, {"compound": "COc1cccc2c1C(=O)c1c(O)c3c(c(O)c1C2=O)C[C@@](O)(C(=O)CO)C[C@@H]3O[C@H]1C[C@H](N)[C@H](O)[C@H](C)O1", "note": "[Doxorubicin, doxorubicin]", "values": [{"measurement": "M-CSF mRNA levels in hRPTECs", "setting": "M-CSF mRNA", "result": "significant results; also recorded: significant induction"}, {"measurement": "CC50 at 72 h", "setting": "[3]", "result": "> 50", "unit": "µM"}, {"measurement": "CC50 at 72 h", "setting": "[5]", "result": "> 50", "unit": "µM"}, {"measurement": "CC50 at 72 h", "setting": "[6]", "result": "5.2 ± 1", "unit": "µM"}, {"measurement": "NGAL protein in hRPTEC culture medium", "setting": "NGAL [7]", "result": "increases"}, {"measurement": "KIM-1 mRNA transcription level in HK-2 cells", "setting": "KIM-1 mRNA [8]; 72 h, P < 0.005", "result": "increased"}, {"measurement": "NGAL mRNA levels in hRPTECs", "setting": "NGAL mRNA [9]; 72 h exposure, 1 μmol/L (high dose), P < 0.001", "result": "kept rising; also recorded: significant induction"}, {"measurement": "KIM-1 mRNA in hRPTECs", "setting": "KIM-1 mRNA [10]; 72 h, high dose", "result": "stimulation; also recorded: significant induction"}, {"measurement": "CC50 at 72 h", "setting": "[11]", "result": "2.1 ± 1", "unit": "µM"}]}]}
